Among the data in PubChem BioAssay (NCI) are TGI values, retold here.

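Grown in 96-well plates, cells were treated for 48 hours with each compound at five concentrations. Insufficient inhibition: endpoint recorded as highest concentration tested. TGI denotes the concentration required for complete inhibition of growth.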

Assay in all cases: NCI-60 cell line screen, 48 h
In assay [1] the test system is HS 578T breast.
The test system of assay [2] is UACC-257 melanoma.
Assay [3] concerns HT29 colon.
For assay [4], the system named is HCT-15 colon.
Assay [5] deals with SN12C renal.
The test system of assay [6] is COLO 205 colon.
Assay [7] relates to HL-60(TB) leukemia.
Assay [8] deals with SNB-19 CNS.
Assay [9] deals with A549 NSCLC.
The test system of assay [10] is HOP-62 NSCLC.
Assay [11] deals with SW-620 colon.
The test system of assay [12] is NCI-H226 lung.
Assay [13] deals with BT-549 breast.
The test system of assay [14] is HCC-2998 colon.
Assay [15] relates to IGROV1 ovarian.
Assay [16] deals with MCF7 breast.
Assay [17] has as its system UO-31 renal.
Assay [18] concerns SR leukemia.

Consider `CN(C)c1ccc(-c2c(C#N)c(O)n(NS(=O)(=O)c3ccccc3)c(=O)c2C#N)cc1`, for which the TGI in [1], in assay [2], in assay [3], in assay [4], in [5] and in assay [6] was > 100 µM throughout. In addition, the TGI in assay [7], in [8], in [9], in [10], in [11] and in [12] was > 100 µM in each case. Besides, the TGI in assay [13], in [14], in assay [15] and in assay [16] was > 100 µM each time.
In the case of `COc1cc(OC)c2c(=O)c(OC)c(-c3ccc4c(c3)OCO4)oc2c1OC`, the TGI in assay [1], in [2], in assay [3], in assay [4], in [5] and in assay [6] was > 100 µM each time. The TGI in assay [7] was 40.4 µM; in assay [8] it was > 100 µM; in assay [9], > 100 µM; in [10] it was > 100 µM; in assay [11], > 100 µM; in assay [12] it was > 100 µM. Moreover, the TGI in [17], in assay [13], in [14], in assay [15] and in [16] was > 100 µM each time.
`Nn1c(CCCCCCCCc2nnc(COc3ccccc3)n2N)nnc1COc1ccccc1`: the TGI in [1], in assay [2], in assay [3], in assay [4], in assay [5] and in assay [6] was > 100 µM throughout. Also, the TGI in assay [7], in [8], in assay [9], in assay [10], in [11] and in assay [12] was > 100 µM in each case. In addition, the TGI in assay [17], in [13], in [14], in assay [15] and in assay [16] was > 100 µM each time.
As for `CCOC(=O)CSc1nnc(CSc2nc(-c3ccccc3)c(-c3ccccc3)[nH]2)n1-c1ccccc1`, the TGI in assay [2] is > 67.4 µM; in assay [3], > 100 µM; in assay [4] it was > 100 µM; in [18] it was > 100 µM; in assay [5], 34.9 µM; in assay [6], > 100 µM. Moreover, the TGI is 98.8 µM in [7]; > 100 µM in [8]; > 100 µM in assay [9]; > 100 µM in assay [10]; > 100 µM in assay [11]; > 73.6 µM in assay [12]. Besides, the TGI in [17] is 38.9 µM; in [13], > 100 µM; in [14], 37.1 µM; in [15] it was > 100 µM; in [16], > 100 µM.
As to `Cc1ccc(Nc2[nH]c(=O)[nH]c(=O)c2C)cc1Cl`, the TGI in assay [1], in assay [2], in assay [3], in [4], in assay [5] and in [6] was > 100 µM throughout. Further, the TGI in assay [8], in assay [9], in [10], in [11], in assay [12] and in assay [17] was > 100 µM each time. For the same molecule, the TGI in assay [13] is > 100 µM; in assay [14] it was > 100 µM; in [15] it was > 100 µM; in [16] it was 59.7 µM.
Regarding `O=c1c2ccccc2nc2n1C(c1ccc([N+](=O)[O-])cc1)C2(c1ccccc1)c1ccccc1` (stereo unspecified), the TGI in assay [1], in assay [2], in assay [3], in [4], in assay [5] and in assay [6] was > 100 µM each time. Further, the TGI in assay [7], in [8], in assay [9], in assay [10], in assay [11] and in assay [13] was > 100 µM in each case. Further, the TGI in assay [15] and in assay [16] was > 100 µM throughout.
For `CC(C)(C)OC(=O)NCCC(=O)NC1(c2cc3ccccc3s2)CCCCC1`, the TGI in [1] came out at 48.8 µM; in [2], 39 µM; in assay [3] it was 29.7 µM; in assay [4], 30.6 µM; in assay [5] it was 34.3 µM; in assay [6], 32.9 µM. For the same molecule, the TGI in [7] was 35.1 µM; in assay [8], 37.1 µM; in assay [9] it was 38.6 µM; in assay [10] it was 35.3 µM; in assay [11], 41.1 µM; in [12], 42.4 µM. Also, the TGI in [17] turned out to be 30.5 µM; in assay [13] it was 32.5 µM; in assay [14] it was 47.5 µM; in assay [15], 36.5 µM; in [16], 41 µM.
Regarding `NNC1=N/C(=C\c2ccco2)C(=O)N1`, the TGI in [2], in assay [3], in [4], in assay [18], in assay [5] and in assay [6] was > 100 µM in each case. Besides, the TGI in assay [7], in assay [8], in assay [9], in [10], in assay [11] and in assay [12] was > 100 µM throughout. For the same molecule, the TGI in assay [17], in assay [13], in [14], in assay [15] and in [16] was > 100 µM in each case.
